According to patent US20100261690A1, “NOVEL COMBINATIONS” (ASTRAZENECA R&D, priority 2009, published 2010):

Tested on: LPS-induced TNFα production in human peripheral blood mononuclear cells (PBMCs)
Assay: Inhibition of LPS-induced TNFα production in human peripheral blood mononuclear cells (AlphaLISA)
Type: cell-based
Conditions: PBMC
Method: Inhibition of Lipopolysaccharride (LPS)-Induced TNFα Production in Human Peripheral Blood Mononuclear Cells
Human isolated peripheral blood mononuclear cells (PBMCs) were pre-incubated with a range of concentrations of the GR agonist (1R,3aS,3bS,10aR,10bS,11S,12aS)-1-{[(cyanomethyl)sulfanyl]carbonyl}-7-(4-fluorophenyl)-11-hydroxy-10a,12a-dimethyl-1,2,3,3a,3b,4,5,7,10,10a,10b,11,12,12a-tetradecahydrocyclopenta[5,6]naphtho[1,2-f]indazol-1-yl furan-2-carboxylate (Compound A), alone or in the presence of a range of concentrations of a second compound with a distinct pharmacological activity for 45 minutes at 37° C. After the pre-incubation period, the cells were then incubated with LPS (5 ng/mL) for 18 hr at 37° C. to induce TNFα production. The total assay volume was 200 μL. At the end of the incubation period, 10 μL of the culture supernatant diluted 1:5 was analysed to quantify the TNFα released using AlphaLISA (PerkinElmer). The fluorescence was detected on an EnVision Alphareader. Inhibition curves were fitted using a 4-parameter logistic equation in a non-linear curve fitting routine and activity was expressed as pIC50.
In each table, the data represents the mean of two separate experiments using PBMC from healthy blood donors (n=2).

Row | Structure (SMILES) | inhibition at 1 µM (Compound A 1000 nM in combination with the listed second compound at 1 μM, mean n=2, read-out: % inhibition @ 1000 nM (maximal inhibition)) | IC50 (read-out: pIC50 for inhibition of LPS-induced TNFα production from human PBMC (converted))
1 | CNCCOc1ccccc1C1(Nc2nccn(-c3cc(C(=O)NC4CC4)cc(F)c3C)c2=O)CC1 [Compound E, N-cyclopropyl-3-fluoro-4-methyl-5-{3-[(1-{2-[2-(methylamino)ethoxy]phenyl}cyclopropyl)amino]-2-oxopyrazin-1(2H)-yl}benzamide] | 99.4% | –
2 | C[C@]12Cc3cnn(-c4ccc(F)cc4)c3C=C1CC[C@@H]1[C@@H]2[C@@H](O)C[C@@]2(C)[C@H]1CC[C@]2(OC(=O)c1ccco1)C(=O)SCC#N [Compound A, (1R,3aS,3bS,10aR,10bS,11S,12aS)-1-{[(cyanomethyl)sulfanyl]carbonyl}-7-(4-fluorophenyl)-11-hydroxy-10a,12a-dimethyl-1,2,3,3a,3b,4,5,7,10,10a,10b,11,12,12a-tetradecahydrocyclopenta[5,6]naphtho[1,2-f]indazol-1-yl furan-2-carboxylate] | – | 0.708 nM
